ChEMBL document CHEMBL1159316, “Bioactive saponins from Acacia tenuifolia from the suriname rainforest” (J Nat Prod, 2002)
≈ marks a conversion by molar mass, not a printed value.

Experiments:
[1] = test system: Saccharomyces cerevisiae; experiment: Antifungal activity against Saccharomyces cerevisiae 1140; assay type: functional
[2] = test system: Saccharomyces cerevisiae; experiment: Antifungal activity against Saccharomyces cerevisiae 1353; assay type: functional
[3] = test system: Saccharomyces cerevisiae; experiment: Antifungal activity against Saccharomyces cerevisiae Sc7; assay type: functional
[4] = test system: M109; experiment: Cytotoxicity against mouse M109 cells; assay type: functional, cell-based
[5] = test system: Saccharomyces cerevisiae; experiment: Antifungal activity against Saccharomyces cerevisiae 1138; assay type: functional
[6] = test system: A2780; experiment: Cytotoxicity against human A2780 cells; assay type: functional, cell-based

Structure (SMILES) | IC12 [1] [µg/mL] | IC12 [2] [µg/mL] | IC12 [3] [µg/mL] | IC50 [4] [µg/mL] | IC12 [5] [µg/mL] | IC50 [6] [µg/mL]
CC(=O)N[C@H]1[C@H](O[C@H]2CC[C@]3(C)[C@H]4CC=C5[C@@H]6CC(C)(C)CC[C@]6(C(=O)O)CC[C@@]5(C)[C@]4(C)CC[C@H]3C2(C)C)O[C@H](CO[C@@H]2OC[C@H](O)[C@H](O)[C@H]2O[C@@H]2OC[C@@H](O)[C@H](O)[C@H]2O)[C@@H](O)[C@@H]1O [ALBIZIATRIOSIDE A] | 35 | 35 | 30 | 1 (≈ 1.08 µM) | 30 | 
CC(=O)N[C@H]1[C@H](O[C@H]2CC[C@]3(C)[C@H]4CC=C5[C@@H]6CC(C)(C)[C@@H](OC(=O)/C=C/c7ccccc7)C[C@]6(C(=O)O)[C@H](O)C[C@@]5(C)[C@]4(C)CC[C@H]3C2(C)C)O[C@H](CO[C@@H]2OC[C@H](O)[C@H](O)[C@H]2O[C@@H]2OC[C@H](O)[C@H](O)[C@H]2O)[C@@H](O)[C@@H]1O [ACACIOSIDE C] | 215 | 220 | 275 |  | 160 | 13 (≈ 12 µM)
CC(=O)N[C@H]1[C@H](O[C@H]2CC[C@]3(C)[C@H]4CC=C5[C@@H]6CC(C)(C)[C@@H](OC(=O)/C=C/c7ccccc7)C[C@]6(C(=O)O)[C@H](O)C[C@@]5(C)[C@]4(C)CC[C@H]3C2(C)C)O[C@H](CO[C@@H]2OC[C@H](O)[C@H](O)[C@H]2O[C@@H]2OC[C@@H](O)[C@H](O)[C@H]2O)[C@@H](O)[C@@H]1O [ACACIOSIDE B] | 220 | 220 | 280 |  | 150 | 13.5 (≈ 12.4 µM)
CC(=O)N[C@H]1[C@H](O[C@H]2CC[C@]3(C)[C@H]4CC=C5[C@@H]6CC(C)(C)CC[C@]6(C(=O)O)CC[C@@]5(C)[C@]4(C)CC[C@H]3C2(C)C)O[C@H](CO[C@@H]2OC[C@H](O)[C@H](O)[C@H]2O[C@@H]2OC[C@H](O)[C@H](O)[C@H]2O)[C@@H](O)[C@@H]1O | 40 | 30 | 45 | 1 (≈ 1.08 µM) | 25 | 
